Experimental data from ChEMBL document CHEMBL1147638, “(+/-)-cis-(6-Ethyl-tetrahydropyran-2-yl)-formic acid: a novel substance with antinociceptive properties” (2004).

Experiments:
[1] = system: Mus musculus; assay: Increase in analgesic activity of compound after oral administration in mouse when compared with morphine in tail flick test; format: functional
[2] = system: Mus musculus; assay: Increase in antinociceptive activity in mouse after oral administration at the dose of 1 mg/kg in tail flick test; format: functional

**Q.** What does the source list for `CC[C@@H]1CCC[C@H](C(=O)O)O1`?
**A.** Increase [1]: 55%; Increase [2]: 40%
